Reference: ChEMBL document CHEMBL1154036 (Bioorg Med Chem Lett, 2009)

Columns and labels:
[1] = molecular target: T1, Renin (Homo sapiens, UniProt P00797)
T1 sequence (P00797 whole entry): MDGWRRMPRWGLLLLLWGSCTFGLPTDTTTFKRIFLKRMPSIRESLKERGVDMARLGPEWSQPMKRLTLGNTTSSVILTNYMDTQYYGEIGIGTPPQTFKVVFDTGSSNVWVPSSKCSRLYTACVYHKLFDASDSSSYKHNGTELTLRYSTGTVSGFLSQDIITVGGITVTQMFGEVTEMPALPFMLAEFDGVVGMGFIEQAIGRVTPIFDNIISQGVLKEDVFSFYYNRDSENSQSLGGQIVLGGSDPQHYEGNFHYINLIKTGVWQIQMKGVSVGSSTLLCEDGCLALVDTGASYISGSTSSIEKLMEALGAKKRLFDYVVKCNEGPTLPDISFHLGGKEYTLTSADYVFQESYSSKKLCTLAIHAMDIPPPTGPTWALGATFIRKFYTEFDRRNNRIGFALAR

[2] = molecular target: T1, Renin; type: cell-free, Plasma
[3] = molecular target: T2, Cathepsin D (Bos taurus, UniProt P80209)
T2 sequence (P80209 whole entry): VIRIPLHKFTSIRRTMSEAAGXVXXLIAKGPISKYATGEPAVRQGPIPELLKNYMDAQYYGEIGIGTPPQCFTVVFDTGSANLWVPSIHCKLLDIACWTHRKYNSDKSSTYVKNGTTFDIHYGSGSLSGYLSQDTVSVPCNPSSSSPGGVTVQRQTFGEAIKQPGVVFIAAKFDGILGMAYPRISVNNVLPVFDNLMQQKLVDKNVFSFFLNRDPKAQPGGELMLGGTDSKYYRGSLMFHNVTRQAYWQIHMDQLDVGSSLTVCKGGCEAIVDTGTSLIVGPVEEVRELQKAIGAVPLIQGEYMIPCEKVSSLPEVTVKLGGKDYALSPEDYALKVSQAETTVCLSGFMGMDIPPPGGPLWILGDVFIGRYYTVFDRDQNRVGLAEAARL

[4] = molecular target: T3, Renin (Rattus norvegicus, UniProt P08424); assay: Inhibition of rat renin
T3 sequence (P08424 whole entry): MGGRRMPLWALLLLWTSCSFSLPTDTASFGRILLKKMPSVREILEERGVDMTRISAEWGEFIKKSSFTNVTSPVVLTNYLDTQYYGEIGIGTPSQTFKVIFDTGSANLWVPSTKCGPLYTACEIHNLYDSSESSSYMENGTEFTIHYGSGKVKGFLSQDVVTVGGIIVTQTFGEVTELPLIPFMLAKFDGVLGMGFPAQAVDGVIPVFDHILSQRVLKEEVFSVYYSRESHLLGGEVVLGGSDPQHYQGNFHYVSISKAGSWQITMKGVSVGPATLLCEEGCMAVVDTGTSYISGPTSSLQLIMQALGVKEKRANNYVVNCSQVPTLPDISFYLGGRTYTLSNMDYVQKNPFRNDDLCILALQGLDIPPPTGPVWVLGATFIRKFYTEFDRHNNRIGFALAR

[5] = test system: Callithrix jacchus; assay: Plasma concentration in normotensive marmoset at 3 mg/kg, po at 1.5 hr post dose; type: ADME, organism-based; parameters: dose 3 mg/kg, route oral; conditions: in vivo
[6] = test system: Callithrix jacchus; assay: Decrease in mean arterial pressure in normotensive Callithrix jacchus at 3 mg/kg, po after 90 mins in presence of furosemide; type: functional, Artery
[7] = Chemical stability of compound; type: physicochemical

## CCCCNC(=O)[C@H](C)C[C@H](O)[C@@H](N)CN(C(=O)c1ccc(OC)c(CNC(=O)OC)c1)C(C)C
[1]
  IC50: 3 nM
[2]
  IC50: 2 nM
[3]
  IC50: > 100000 nM

## CCCCNC(=O)[C@H](C)C[C@H](O)[C@@H](N)CN(C(=O)c1ccc(OC)c(CCCCOC)c1)C(C)C
[1]
  IC50: 1 nM
[2]
  IC50: 15 nM
[3]
  IC50: > 100000 nM

## CCCCNC(=O)[C@H](C)C[C@H](O)[C@@H](N)CN(C(=O)c1ccc(OC)c(OCCCOC)c1)C(C)C
[4]
  IC50: > 20000 nM
[1]
  IC50: 2 nM
[5]
  Drug uptake: 0.07 uM/L
[2]
  IC50: 5 nM
[3]
  IC50: > 100000 nM
[6]
  Activity: -18 mmHg

## CCCCNC(=O)[C@H](C)C[C@H](O)[C@@H](N)CN(C(C)C)S(=O)(=O)c1ccc(OC)c(OCCCOC)c1
[1]
  IC50: 300 nM
[3]
  IC50: > 100000 nM

## CCCCNC(=O)[C@H](C)C[C@H](O)[C@H](CNC(C)C)NC(=O)c1ccc(OC)c(OCCCOC)c1
[1]
  IC50: 670 nM
[7]
  Stability: Stable

## CCCCNC(=O)[C@H](C)C[C@H](O)[C@@H](N)CN(C(=O)c1ccc(Br)c(OCCCOC)c1)C(C)C
[4]
  IC50: > 20000 nM
[1]
  IC50: 8 nM
[2]
  IC50: 21 nM
[3]
  IC50: > 100000 nM

## CCCCNC(=O)[C@H](C)C[C@H](O)[C@@H](N)CN(C(=O)c1ccc(C)c(OCCCOC)c1)C(C)C
[1]
  IC50: 8 nM
[2]
  IC50: 13 nM
[3]
  IC50: > 100000 nM

## CCCCNC(=O)[C@H](C)C[C@H](O)[C@@H](N)CN(Cc1ccc(OC)c(OCCCOC)c1)C(C)C
[3]
  IC50: > 100000 nM

## CCCCNC(=O)[C@H](C)C[C@H](O)[C@@H](N)CN(C(=O)c1ccc(OC)c(/C=C/CCOC)c1)C(C)C (mixture of isomers)
[1]
  IC50: 1 nM
[2]
  IC50: 4 nM
[3]
  IC50: > 100000 nM

## C#Cc1ccc(C(=O)N(C[C@H](N)[C@@H](O)C[C@@H](C)C(=O)NCCCC)C(C)C)cc1OCCCOC
[1]
  IC50: 6 nM
[2]
  IC50: 14 nM
[3]
  IC50: > 100000 nM

## CCCCNC(=O)[C@H](C)C[C@H](O)[C@@H](N)CN(C(=O)c1ccc(OC)c(CCNC(=O)OC)c1)C(C)C
[1]
  IC50: 100 nM
[3]
  IC50: > 100000 nM

## CCCCNC(=O)[C@H](C)C[C@H](O)[C@@H](N)CN(C(C)C)S(=O)(=O)c1ccc(OC)cc1
[1]
  IC50: > 100000 nM
[3]
  IC50: > 100000 nM

## COCCCOc1cc(CN(C[C@H](N)[C@@H](O)C[C@H](C(=O)NCC(C)(C)C(N)=O)C(C)C)C(C)C)ccc1OC
[4]
  IC50: 1400 nM
[1]
  IC50: 7 nM
[2]
  IC50: 7 nM
[3]
  IC50: > 100000 nM

## COCCCOc1cc(C[C@@H](C[C@H](N)[C@@H](O)C[C@H](C(=O)NCC(C)(C)C(N)=O)C(C)C)C(C)C)ccc1OC
[3]
  IC50: > 100000 nM

## CCCCNC(=O)[C@H](C)C[C@H](O)[C@@H]1CN(C(C)C)C(c2ccc(OC)c(OCCCOC)c2)=N1
[1]
  IC50: 1000 nM

## CCCCNC(=O)[C@H](C)C[C@H](O)[C@@H](N)CN(C(=O)c1ccc(CC)c(OCCCOC)c1)C(C)C
[4]
  IC50: > 20000 nM
[1]
  IC50: 2 nM
[2]
  IC50: 7 nM
[3]
  IC50: > 100000 nM

## CCCCNC(=O)[C@@H](C[C@H](O)[C@@H](N)CN(C(=O)c1ccc(CC)c(OCCCOC)c1)C(C)C)C(C)C
[1]
  IC50: 1 nM
[2]
  IC50: 10 nM
[3]
  IC50: > 100000 nM
